This is an account of results in EP0866684B1, “COSMETIC HAIR TREATMENT METHOD” (UNILEVER PLC, priority 1995, dated 1997).

The test system of experiment [1] is isolated human hair follicles. Kind of experiment: In vitro hair follicle growth test: growth at varied cysteine concentration (Example 1). The experiment is classed as cell-based. The note with it: concentration of cysteine + cystine (half cystine) varied in supplemented Williams E medium. How it is done: The effect of cysteine on hair diameter was assessed using an in vitro test which uses isolated human hair follicles in a culture medium.
Human hair follicles were isolated from scalp skin by the methods described by Philpott et al J Cell Science 97 463-471, 1990. […] Follicles isolated in this way were cultured as described by Westgate et al Br. J. Dermatol 129 372-379, 1993 in a completely defined culture medium called Williams E medium (obtainable from ICN FLOW), the latter supplemented with antibiotics, glutamine, hydrocortisone and Insulin. In this example the concentration of cysteine + cystine (referred to as half cystine) was varied and the daily rate of growth of follicles measured.

The subject of experiment [2] is isolated human hair follicles. Kind of experiment: Incorporation of radiolabelled cysteine into hair fibre in vitro (Example 2). Type of experiment: cell-based. The note with it: 5 hours with a range of cysteine concentrations, partly radiolabelled; 48 hours chase; liquid scintillation counting of the fibre. How it is done: Follicles were isolated as described in Example 1 and cultured for 5 hours in the presence of a range of concentrations of cysteine, a small proportion of which was radiolabelled. After 5 hours the follicles were transferred to normal supplemented Williams E medium to "chase" the radioactivity into the fibre being grown in the follicle, for 48 hours. The hair fibre was isolated from each follicle using a combination of detergent and enzyme and the 'naked' fibre dissolved and subjected to liquid scintillation counting.

The next experiment relates to sheep. The note with it: cited from earlier work; for sulphur content of the "new" wool / wool growth: abomasal or intravenous infusion, sheep consuming roughage-based diets; for increase in fibre diameter: cysteine infusion, sheep wool.
For experiment [3], the system named is isolated human hair follicles. Kind of experiment: Diameter of hair fibres grown in vitro, Laser Scan Micrometer (Example 4). The note with it: range of cysteine concentrations, 7-11 days of culture. Type of experiment: cell-based. How it is done:
Follicles were isolated as described in Example 1 and placed into culture in supplemented Williams E medium containing a range of concentrations of cysteine. Following several days of culture(7-11), follicles were removed from the medium and the fibres isolated from the follicles as described above. The diameter of the fibres was measured using a modified Laser Scan Micrometer (Mitotoyu) coupled to a moving jig which was capable of rotating the fibre through 180° and moving the fibre through the laser beam at intervals of 0.2mm. Each isolated fibre contained a small part which was formally grown in vivo, the diameter of this "in vivo" end of the fibre. The diameter of the fibre grown in vitro was measured at intervals of 0.2mm along the fibre. For estimation of the effect of different media concentrations of cysteine on diameter, the average in vitro diameter was compared across the treatment concentrations of cysteine and the ratio of in vitro diameter to in vivo diameter was calculated.

Experiment [4] has as its system isolated human hair follicles. The experiment can be described thus: Growth of follicles moved from lower to higher cysteine medium (Example 3). The experiment is classed as cell-based. The note with it: 2 days in medium with lower cysteine, then moved to medium with a higher amount of cysteine. How it is done:
Human hair follicles were isolated as described in Example 1 and placed into culture in Williams E medium formulated to contain a lower concentration of cysteine. Follicles were cultured for 2 days in this medium then transferred to medium containing a higher amount of cysteine.

In experiment [5] the test system is isolated human hair follicles. Kind of experiment: Fibre diameter after change from lower to higher cysteine concentration (Example 5). Type of experiment: cell-based. The protocol: Follicles were isolated as described in Example 1 and cultured as described in Example 3. Fibres were isolated and diameter measured as described in Example 4. […] The change in diameter was calculated by taking, firstly the diameter at the narrowest part of the fibre for each of the three treatments and secondly the diameter of the fibre during growth after addition of cysteine - deemed to be the in vitro diameter, and taking the ratio of these to the in vivo diameter.

Like-named read-outs stand apart in the source and are kept apart here.

With `N[C@@H](CS)C(=O)O` [cysteine], the “daily rate of growth of follicles” value in experiment [1] is on record as “growth increases with cysteine concentration in the medium”. Besides, the “Incorporation of cysteine into human hair in vitro” value in experiment [2] is recorded as “concentration dependent”. Further, in the experiment with sheep, the “sulphur content of the "new" wool” value was “increased”. Moreover, in the experiment with sheep, the wool growth result was “stimulates wool growth”. For the same molecule, the entries for the “increase in fibre diameter” value in the experiment on sheep (typical value) and in the experiment with sheep were 1-3 µm and 5-10%, respectively. In addition, the “diameter of the fibres” value in experiment [3] is reported as “dependent on the concentration of cysteine available to the follicles”. For the same molecule, the growth rate entry in experiment [4] is “increasing their growth rate”. The “diameter of the fibre” value was “increased again” in experiment [5] (after transfer to the higher concentration of cysteine (495.0µM)) and “decreased from the in vivo diameter” in experiment [5] (lower concentration of cysteine (9.0µM), compared with the in vivo diameter). Moreover, the “change in diameter (ratio to the in vivo diameter)” value in experiment [5] (follicles where the cysteine concentration was reversed) was “the fibre diameter was similarly reversed”.
Take `CSCC[C@H](N)C(=O)O` [methionine, reference compound]: in the experiment with sheep, the “sulphur content of the "new" wool” value was “increased” and the wool growth result is given as “stimulates wool growth”.
